Experimental data: patent US20250213700A1, “COMPOUNDS, COMPOSITIONS, AND METHODS FOR CELL-SPECIFIC PHARMACOLOGY” (Duke University, priority 2022, published 2025)

Test system: AMPAR
Experiment: whole-mount retina, AMPAR-mediated evoked EPSC in retinal ganglion cells
Assay type: cell-based, mouse
Settings: 300 nM, 15 min
Experimental: (FIG. 6A) Viral strategy (top panel). […] Experimental overview (second panel from the top to bottom panel). Top: whole retina; synaptic current is evoked (stim) and recorded (voltage-clamp of dTomato+ RGC), with ionic and pharmaceutical conditions chosen to isolate the AMPAR or GABAAR. A 10 min baseline is followed by 15 min application of 300 nM Rx^DART.2+30 nM Alexa^647.1DART.2. […] (FIG. 6B) CMPDA.2^DART.2 (left). Electropositive spacer (PDB 3RNN). […] AMPAR structural model (middle) (composite of PDB 5WEO, 3RNN, and 1FTL). Cylinder depicts cell membrane. […] YM90K.1^DART.2 (right). Structural model (PDB 1FTL). […] (FIG. 6C) diazepam.1^DART.2 (left). Structural model (PDB 6HUP). […] GABAAR (middle) structural model (composite of PDB 6HUP and 6HUK). […] Structural model (PDB 6HUK).
Preparation of Retina: Mice were intravitreal injected AAV10 HaloTag™-dTomato to eyes. After 8-12 weeks, the mice killed by cervical dislocation. Both eyes were removed and dissected under a stereo-microscope. Retinas were isolated from the eyecups and placed in oxygenated (95% O2/5% CO2) cold-Ames medium (Sigma-Aldrich), supplemented with 21 mM NaHCO3. After the vitreous body was removed, a retina was cut into 3 pieces, leaving each retina piece attached to a filter paper with 2 mm hole by retina ganglion-cell-side-down. The pieces of retina were stored in bubbled Ames solution at room temperature, then transferred to recording chamber with retina ganglion-cell-side-up for recording.
Whole-cell patch-clamp recording: The brain slices or retinas were perfused with bubbled aCSF at 29-30° C. with a 2 ml/min flow rate. Recordings were made by whole cell patch recording techniques using a Multiclamp 700B amplifier (Molecular Devices, Axon Instruments Inc., Union City, CA). The signals were filtered at 10 KHz and acquired using Digitate 1440A and pClamp 10.7 (Molecular Devices). The recording pipettes (4 MΩ-6 MΩ) were filled with internal solutions. For GABAA receptor-mediated evoked inhibitory postsynaptic currents ([…]) recording, the pipettes filled with Cesium Chloride-based internal solution (in mM) 135 CsCl, 2 MgCl2, 0.5 EGTA, 10 HEPES, 4 Mg-ATP, 0.5 Na-GTP, 10 Na2-phosphocreatine, and QX314 (lidocaine N-ethyl bromide), pH adjusted to 7.3 with CsOH (290 mosm). For AMPA-receptor mediated evoked excitatory postsynaptic currents (eEPSCs) recording, the pipette solution contained (in mM) 130 CsMeS, 1 MgCl2, 0.5 EGTA, 10 HEPES, 4 Mg-ATP, 0.5 Na-GTP, 10 Na2-phosphocreatine, and 4 QX314, pH adjusted to 7.3 with CsOH (290 mosm). For experiment of brain slices and retinas, the eIPSCs or eEPSCs were elicited by electrical stimuli at 0.067 Hz in 0.3-ms duration and 150-300-ρA (60-70% maximum responses) stimulation intensity at a holding potential of −70 mV. The stimulating electrode was placed within 60-100 μm from the recording neuron under voltage-clamp mode. GABA-receptor mediated eIPSCs were isolated in the presence of DNQX ([…] AMPAR antagonist) and AP-V ([…] antagonist) in the bath solution. For AMPA-receptor mediated eEPSCs, added picrotoxin ([…], GABAAR antagonist) and AP-V ([…]) to the bath solution.

SMILES: COc1cc(CCCCl)ccc1CCOCCNC(=O)c1ccc(CNC(=O)CCOCCOCCOCCOCCOCCOCCOCCOCCOCCOCCOCCOCCOCCOCCOCCOCCOCCOCCOCCOCCOCCOCCOCCOCCOCCOCCOCCOCCOCCOCCOCCOCCOCCOCCOCCOCCn2cc(COCCOCCOCCOCCOCCOCCNC(=O)CCCn3c(=O)c(=O)[nH]c4cc([N+](=O)[O-])c(-n5ccnc5)cc43)nn2)cc1 [YM90K.1DART.2]
- AMPAR evoked EPSC block, +HTP cells: blocked the AMPAR-mediated EPSC
- AMPAR evoked EPSC block, +HTP cells (listed as YM90K.1^DART.2): blocked on ^+HTP cells
